Assay results taken from publication PMC7004565, “Nucleotide inhibition of the pancreatic ATP-sensitive K^+ channel explored with patch-clamp fluorometry” (eLife, 2020).
Values joined by “and” are separate entries in the source; they are usually repeats but may differ in a detail not shown here. Equal values may be shown once.

Assays:
Kir6.2*-GFP + SUR-K205E = molecular target: T1, Kir6.2*-GFP + SUR-K205E (Homo sapiens, UniProt Q14654); assay: Current inhibition in excised inside-out patches (patch-clamp fluorometry); format: biochemical; conditions: Mg2+-free, Hill fit
T1 construct: ANAP labelling is specific and only full-length Kir6.2 is expressed at the cell membrane; expressed in transfected cells; host or cells: HEK-293T
T1 sequence (Q09428 whole entry K205E partner, one chain of several): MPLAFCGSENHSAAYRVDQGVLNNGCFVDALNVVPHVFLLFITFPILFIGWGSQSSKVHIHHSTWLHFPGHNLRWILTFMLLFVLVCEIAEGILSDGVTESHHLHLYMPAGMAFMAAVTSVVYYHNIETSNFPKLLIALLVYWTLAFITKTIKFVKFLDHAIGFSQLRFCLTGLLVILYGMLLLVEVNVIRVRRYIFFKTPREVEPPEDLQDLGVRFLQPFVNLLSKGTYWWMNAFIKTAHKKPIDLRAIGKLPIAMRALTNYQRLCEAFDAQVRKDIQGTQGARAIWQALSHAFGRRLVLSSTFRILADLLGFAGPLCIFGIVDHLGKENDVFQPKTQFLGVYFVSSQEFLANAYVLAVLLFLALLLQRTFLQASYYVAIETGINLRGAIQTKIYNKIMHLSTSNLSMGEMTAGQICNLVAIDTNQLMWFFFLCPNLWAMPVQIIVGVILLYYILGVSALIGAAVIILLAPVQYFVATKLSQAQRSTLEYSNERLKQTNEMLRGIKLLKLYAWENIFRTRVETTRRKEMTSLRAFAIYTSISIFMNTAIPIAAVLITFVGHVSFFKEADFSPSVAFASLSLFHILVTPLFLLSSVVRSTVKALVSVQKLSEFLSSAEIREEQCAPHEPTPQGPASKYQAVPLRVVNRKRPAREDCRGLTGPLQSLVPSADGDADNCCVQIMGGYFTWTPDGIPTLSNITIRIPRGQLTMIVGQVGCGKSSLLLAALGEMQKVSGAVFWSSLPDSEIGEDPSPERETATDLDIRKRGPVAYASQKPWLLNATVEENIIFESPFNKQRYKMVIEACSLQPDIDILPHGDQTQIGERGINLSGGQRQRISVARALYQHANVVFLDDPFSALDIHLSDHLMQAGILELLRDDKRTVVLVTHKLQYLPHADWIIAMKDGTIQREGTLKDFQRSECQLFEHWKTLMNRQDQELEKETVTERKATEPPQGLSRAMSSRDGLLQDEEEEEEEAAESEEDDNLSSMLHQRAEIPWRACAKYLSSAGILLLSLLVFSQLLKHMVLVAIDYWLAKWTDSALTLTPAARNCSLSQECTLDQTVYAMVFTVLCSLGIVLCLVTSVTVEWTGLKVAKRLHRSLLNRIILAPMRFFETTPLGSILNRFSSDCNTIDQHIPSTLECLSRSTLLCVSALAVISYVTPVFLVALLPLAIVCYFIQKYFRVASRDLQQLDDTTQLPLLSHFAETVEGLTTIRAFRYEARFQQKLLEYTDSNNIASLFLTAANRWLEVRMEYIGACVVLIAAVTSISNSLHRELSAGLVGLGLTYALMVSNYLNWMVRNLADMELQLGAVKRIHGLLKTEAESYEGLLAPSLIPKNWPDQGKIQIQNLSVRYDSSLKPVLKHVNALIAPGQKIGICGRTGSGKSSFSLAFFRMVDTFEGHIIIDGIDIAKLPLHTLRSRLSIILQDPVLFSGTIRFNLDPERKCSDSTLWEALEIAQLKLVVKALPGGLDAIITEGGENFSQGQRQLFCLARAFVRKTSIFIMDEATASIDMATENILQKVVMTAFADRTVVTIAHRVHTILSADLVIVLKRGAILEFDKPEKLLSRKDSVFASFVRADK
Text: (§1) We introduced a charge neutralization (alanine, K205A) and a charge reversal (glutamate, K205E) mutation at this position and measured simultaneous nucleotide binding and current inhibition with PCF (Figure 4B,C,D). The binding and inhibition curves for TNP-ATP almost perfectly overlaid for the SUR1-K205A mutant (Figure 4C). The same was also true for SUR1-K205E (Figure 4D). Data were fit with the MWC-type model as before. […] This was reflected by a decrease in the estimated KA for TNP-ATP, which correlated with the degree of conservation of the mutation, that is we observed a larger effect for the charge reversal compared to the charge neutralization mutation (Figure 4E). However, in addition to direct effects of K205 on nucleotide binding, we also observed a shift in D for both mutations (Figure 4E).
(§2) Currents were measured as described above.

Kir6.2*-GFP + SUR-K205A = molecular target: T2, Kir6.2*-GFP + SUR-K205A (Homo sapiens, UniProt Q14654); assay: as above; format: biochemical; conditions: Mg2+-free, Hill fit
T2 construct: ANAP labelling is specific and only full-length Kir6.2 is expressed at the cell membrane; expressed in transfected cells; host or cells: HEK-293T
T2 sequence (Q09428 whole entry K205A partner, one chain of several): as the sequence (Q09428 whole entry K205E partner, one chain of several) above, with E205A counted along it
Text: as §1, §2

Kir6.2-GFP (no SUR1) [1] = molecular target: T3, Kir6.2-GFP (no SUR1) (Homo sapiens, UniProt Q14654); assay: Current inhibition in excised inside-out patches; format: biochemical; conditions: excised inside-out patches, no SUR1, Mg2+-free, Hill fit
T3 construct: ANAP labelling is specific and only full-length Kir6.2 is expressed at the cell membrane; expressed in transfected cells; host or cells: HEK-293T
T3 sequence (Q14654 1-390): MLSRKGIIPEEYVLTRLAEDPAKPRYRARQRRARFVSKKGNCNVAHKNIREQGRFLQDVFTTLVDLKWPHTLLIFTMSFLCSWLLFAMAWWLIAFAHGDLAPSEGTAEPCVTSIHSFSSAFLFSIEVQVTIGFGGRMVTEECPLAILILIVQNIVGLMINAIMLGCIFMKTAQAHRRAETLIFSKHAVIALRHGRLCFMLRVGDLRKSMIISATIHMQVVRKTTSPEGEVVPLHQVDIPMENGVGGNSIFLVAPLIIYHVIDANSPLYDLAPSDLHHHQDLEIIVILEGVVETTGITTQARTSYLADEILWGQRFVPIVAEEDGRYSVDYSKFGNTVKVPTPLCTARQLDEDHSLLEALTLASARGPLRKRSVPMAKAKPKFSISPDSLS
Method: Currents were measured from patches from cells expressing KATP that were excised in the absence of Mg^2+. Under such conditions, nucleotides can bind to both sites on SUR1, but no activation occurs, allowing inhibitory currents to be measured in isolation ([Gribble et al., 1998]; [Ueda et al., 1999]; [Puljung et al., 2019]).

Kir6.2-GFP (no SUR1) [2] = molecular target: T3, Kir6.2-GFP (no SUR1); assay: FRET (ANAP quenching) nucleotide binding in unroofed membranes
Text: To measure nucleotide binding, cells transfected with Kir6.2*-GFP + SUR1 were briefly sonicated, leaving behind unroofed plasma membrane fragments ([Heuser, 2000]; [Zagotta et al., 2016]; [Puljung et al., 2019]) containing ANAP-labelled KATP channels with the intracellular nucleotide-binding sites exposed to the bath solution. The sample was excited with a 385 nm LED and emitted fluorescence from the membrane fragments was passed through a spectrometer, allowing us to separate ANAP, GFP, and TNP-ATP fluorescence by peak wavelength (Figure 1E,F). As expected from FRET, increasing the concentration of TNP-ATP caused a decrement in the ANAP peak at 472 nm and a concomitant increase in the TNP-ATP peak at 561 nm (Figure 1F). We used the quenching of the ANAP peak as a direct measure of TNP-ATP binding as this signal was specific to KATP. In contrast, the peak TNP-ATP fluorescence may include contributions from both specific and non-specific nucleotide binding, as well as direct excitation of TNP-ATP in solution by the 385 nm excitation light. Due to the sharp cut-off of the GFP emission spectrum at shorter wavelengths, our measurements of peak ANAP fluorescence were unaffected by the presence of the GFP tag on Kir6.2.
SUR1 plays a complex role in the regulation of Kir6.2. It increases the Popen of the channel and allows for the activation of the channel by Mg-nucleotides ([Nichols et al., 1996]; [Tucker et al., 1997]; [Babenko and Bryan, 2003]; [Chan, 2003]; [Fang et al., 2006]). However, it also increases the sensitivity of Kir6.2 to nucleotide inhibition ([Babenko and Bryan, 2003]; [Chan, 2003]; [Fang et al., 2006]). To understand the effect of SUR1 on nucleotide inhibition of KATP, we expressed Kir6.2*-GFP in the absence of SUR1 in unroofed membranes and measured TNP-ATP binding (Figure 4—figure supplement 1A). […] Unfortunately, we were unable to achieve high enough expression of Kir6.2*-GFP alone to carry out PCF experiments in the absence of SUR1. […]
Epifluorescence imaging and spectroscopy were performed using a Nikon Eclipse TE2000-U microscope with a 60x water immersion objective (Plan Apo VC, NA = 1.2, Nikon; Kingston upon Thames, UK) or a 100x oil immersion objective (Nikon, Apo TIRF, NA = 1.49). […] Fluorescence spectra were collected by exciting ANAP as above but using a 400 nm long-pass emission filter (ThorLabs), then passing emitted light through an IsoPlane 160 Spectrometer (Princeton Instruments; Trenton, NJ) with a 300 grooves mm^-1 grating. […]
Unroofed membranes were prepared as described previously ([Heuser, 2000]; [Zagotta et al., 2016]; [Puljung et al., 2019]). […] Unroofed membrane fragments were nearly invisible in bright-field images and identified by their GFP and ANAP fluorescence. […]

For Nc1ncnc2c1ncn2[C@@H]1O[C@H](COP(=O)(O)OP(=O)(O)OP(=O)(O)O)[C@H]2OC3(O[C@H]21)C([N+](=O)[O-])=CC(=[N+]([O-])[O-])C=C3[N+](=O)[O-] (stereo partly shown) [TNP-ATP, trinitrophenyl-ATP], the “h (Hill coefficient) current inhibition” value (Kir6.2*-GFP + SUR-K205E) was 0.79, the IC50 (Kir6.2*-GFP + SUR-K205E; n = 9) was 631 µM and the “h (Hill coefficient) current inhibition” value (Kir6.2*-GFP + SUR-K205A) was 0.75. The IC50 (Kir6.2*-GFP + SUR-K205A; n = 9) was 166 µM, the IC50 (Kir6.2-GFP (no SUR1) [1]; IC50 current inhibition) was 273 µM and 275 µM and the “h (Hill coefficient) current inhibition” value (Kir6.2-GFP (no SUR1) [1]) was 1.09. For the same compound, the “increase in apparent EC50 compared to the same construct in the presence of SUR1” value (Kir6.2-GFP (no SUR1) [2]) was “approximately 1.5 fold”, the “h (Hill coefficient) fluorescence quenching” value (Kir6.2-GFP (no SUR1) [2]; no SUR1, Hill fit) was 0.83 and the Emax (Kir6.2-GFP (no SUR1) [2]; no SUR1, Hill fit, fraction, read-out: Emax fluorescence quenching) was 92%. For the same compound, the EC50 (Kir6.2-GFP (no SUR1) [2]; no SUR1, Hill fit, n = 14, read-out: EC50 fluorescence quenching) was 37.6 µM and 38 µM.
